Assays:
Assay type in all cases: in vivo
Details in all cases: evaluated after 13 days
[1] = system: Alopecurus myosuroides (ALOMY); assay: Post-emergence herbicidal activity, Alopecurus myosuroides; set-up: key: 5=total damage to plant; 0=no damage to plant
How it was run: (§1)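 Each value is a visual damage score from 0 (no effect) to 5 (plant killed), assessed 13 days after a foliar spray applied to 8-day-old plants. The compound was applied in acetone/water 50:50 with 0.5% Tween 20 under controlled glasshouse conditions.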

Setaria faberi (SETFA) [2] = assay: Post-emergence herbicidal activity, Setaria faberi; set-up: key: 5=total damage to plant; 0=no damage to plant
How it was run: as §1

[3] = system: Triticum aestivium (TRZAW); assay: Post-emergence herbicidal activity, Triticum aestivium; set-up: key: 5=total damage to plant; 0=no damage to plant
How it was run: as §1

Setaria faberi (SETFA) [4] = assay: Pre-emergence herbicidal activity, Setaria faberi; set-up: key: 5=total damage to plant; 0=no damage to plant
How it was run: (§2)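 Visual injury score, 0–5, taken 13 days after a pre-emergence spray applied one day post-sowing; spray vehicle acetone/water (50:50) with 0.5% Tween 20.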

[5] = system: Echinochloa crus-galli (ECHCG); assay: Pre-emergence herbicidal activity, Echinochloa crus-galli
How it was run: as §2

Avena fatua (AVEFA) [6] = assay: Pre-emergence herbicidal activity, Avena fatua
How it was run: as §2

Lolium perenne (LOLPE) [7] = assay: Post-emergence herbicidal activity, Lolium perenne
How it was run: as §1

[8] = system: Alopecurus myosuroides (ALOMY); assay: Pre-emergence herbicidal activity, Alopecurus myosuroides; set-up: key: 5=total damage to plant; 0=no damage to plant
How it was run: as §2

Avena fatua (AVEFA) [9] = assay: Post-emergence herbicidal activity, Avena fatua
How it was run: as §1

[10] = system: Triticum aestivium (TRZAW); assay: Pre-emergence herbicidal activity, Triticum aestivium; set-up: key: 5=total damage to plant; 0=no damage to plant
How it was run: as §2

[11] = system: Echinochloa crus-galli (ECHCG); assay: Post-emergence herbicidal activity, Echinochloa crus-galli; set-up: key: 5=total damage to plant; 0=no damage to plant
How it was run: as §1

Lolium perenne (LOLPE) [12] = assay: Pre-emergence herbicidal activity, Lolium perenne
How it was run: as §2

SMILES | Control of ALOMY after post-emergence application (score 0-5) ([1]; 1000 g/ha) | Control of SETFA after post-emergence application (score 0-5) (Setaria faberi (SETFA) [2]; 1000 g/ha) | Control of TRAZW after post-emergence application (score 0-5) ([3]; 1000 g/ha) | Control of SETFA after pre-emergence application (score 0-5) (Setaria faberi (SETFA) [4]; 1000 g/ha) | Control of ECHCG after pre-emergence application (score 0-5) ([5]; 1000 g/ha) | Control of AVEFA after pre-emergence application (score 0-5) (Avena fatua (AVEFA) [6]; 1000 g/ha) | Control of LOLPE after post-emergence application (score 0-5) (Lolium perenne (LOLPE) [7]; 1000 g/ha) | Control of ALOMY after pre-emergence application (score 0-5) ([8]; 1000 g/ha) | Control of AVEFA after post-emergence application (score 0-5) (Avena fatua (AVEFA) [9]; 1000 g/ha) | Control of TRAZW after pre-emergence application (score 0-5) ([10]; 1000 g/ha) | Control of ECHCG after post-emergence application (score 0-5) ([11]; 1000 g/ha) | Control of LOLPE after pre-emergence application (score 0-5) (Lolium perenne (LOLPE) [12]; 1000 g/ha) | also measured
CCCOC(=O)Nc1ccc(-c2cncc(F)c2)nc1C(F)(F)F [Compound B42] | 1 | 5 | 2 | 5 | 4 | 3 | 3 | 1 | 4 | 0 | 5 | 1 | 
O=C(Nc1ccc(-c2cncc(F)c2)nc1C(F)(F)F)OCc1ccccc1 [Compound B53] | 1 | 5 | 1 | 4 | 2 | 1 | 2 | 0 | 4 | 0 | 5 | 1 | 
O=C(Nc1ccc(-c2cncc(F)c2)nc1C(F)(F)F)OCc1ccc(Cl)cc1 [Compound B105] | 0 | 5 | 0 | 5 | 2 | 1 | 1 | 0 | 3 | 0 | 4 | 1 | 
O=C(Nc1ccc(-c2cncc(F)c2)nc1C(F)(F)F)OCCC(F)(F)F [Compound B96] |  |  |  |  |  |  |  |  |  |  |  |  | Control of ALOMY after post-emergence application (score 0-5) ([1]; 250 g/ha): 0; Control of SETFA after post-emergence application (score 0-5) (Setaria faberi (SETFA) [2]; 250 g/ha): 5; Control of TRAZW after post-emergence application (score 0-5) ([3]; 250 g/ha): 0; Control of SETFA after pre-emergence application (score 0-5) (Setaria faberi (SETFA) [4]; 250 g/ha): 5; Control of ECHCG after pre-emergence application (score 0-5) ([5]; 250 g/ha): 4; Control of AVEFA after pre-emergence application (score 0-5) (Avena fatua (AVEFA) [6]; 250 g/ha): 1; Control of LOLPE after post-emergence application (score 0-5) (Lolium perenne (LOLPE) [7]; 250 g/ha): 2; Control of ALOMY after pre-emergence application (score 0-5) ([8]; 250 g/ha): 0; Control of AVEFA after post-emergence application (score 0-5) (Avena fatua (AVEFA) [9]; 250 g/ha): 3; Control of TRAZW after pre-emergence application (score 0-5) ([10]; 250 g/ha): 0; Control of ECHCG after post-emergence application (score 0-5) ([11]; 250 g/ha): 5; Control of LOLPE after pre-emergence application (score 0-5) (Lolium perenne (LOLPE) [12]; 250 g/ha): 1
C#CCOC(=O)Nc1ccc(-c2cncc(F)c2)nc1C(F)(F)F [Compound B61] | 1 | 4 | 0 | 2 | 3 | 2 | 2 | 1 | 2 | 0 | 4 | 1 | 
